From patent US20020026053A1, “Novel 3-(substituted) -2- indolinones compounds and use thereof as inhibitors of protein kinase activity” (priority 1997, published 2002)

target: T1, EGFR (Homo sapiens, UniProt P00533); test: Biochemical EGFR Assay; parameters: concentration or dose not given beside the values; conditions: protocol P.167
T1 construct: endogenous in cells; host or cells: A431 cells (lysate, captured with SUMO1 anti-EGFR antibody)
Method in brief: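 EGFR from A431 lysate was captured on anti-EGFR-coated wells and preincubated 30 min with compound (diluted 1:10 in TBS) at room temperature. After ATP/MnCl2 phosphorylation for 5 min, the reaction was stopped with EDTA. Phosphotyrosine was detected by ELISA (anti-phosphotyrosine, peroxidase conjugate, ABTS) at 410 nm.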

T1 sequence (P00533 25-1210): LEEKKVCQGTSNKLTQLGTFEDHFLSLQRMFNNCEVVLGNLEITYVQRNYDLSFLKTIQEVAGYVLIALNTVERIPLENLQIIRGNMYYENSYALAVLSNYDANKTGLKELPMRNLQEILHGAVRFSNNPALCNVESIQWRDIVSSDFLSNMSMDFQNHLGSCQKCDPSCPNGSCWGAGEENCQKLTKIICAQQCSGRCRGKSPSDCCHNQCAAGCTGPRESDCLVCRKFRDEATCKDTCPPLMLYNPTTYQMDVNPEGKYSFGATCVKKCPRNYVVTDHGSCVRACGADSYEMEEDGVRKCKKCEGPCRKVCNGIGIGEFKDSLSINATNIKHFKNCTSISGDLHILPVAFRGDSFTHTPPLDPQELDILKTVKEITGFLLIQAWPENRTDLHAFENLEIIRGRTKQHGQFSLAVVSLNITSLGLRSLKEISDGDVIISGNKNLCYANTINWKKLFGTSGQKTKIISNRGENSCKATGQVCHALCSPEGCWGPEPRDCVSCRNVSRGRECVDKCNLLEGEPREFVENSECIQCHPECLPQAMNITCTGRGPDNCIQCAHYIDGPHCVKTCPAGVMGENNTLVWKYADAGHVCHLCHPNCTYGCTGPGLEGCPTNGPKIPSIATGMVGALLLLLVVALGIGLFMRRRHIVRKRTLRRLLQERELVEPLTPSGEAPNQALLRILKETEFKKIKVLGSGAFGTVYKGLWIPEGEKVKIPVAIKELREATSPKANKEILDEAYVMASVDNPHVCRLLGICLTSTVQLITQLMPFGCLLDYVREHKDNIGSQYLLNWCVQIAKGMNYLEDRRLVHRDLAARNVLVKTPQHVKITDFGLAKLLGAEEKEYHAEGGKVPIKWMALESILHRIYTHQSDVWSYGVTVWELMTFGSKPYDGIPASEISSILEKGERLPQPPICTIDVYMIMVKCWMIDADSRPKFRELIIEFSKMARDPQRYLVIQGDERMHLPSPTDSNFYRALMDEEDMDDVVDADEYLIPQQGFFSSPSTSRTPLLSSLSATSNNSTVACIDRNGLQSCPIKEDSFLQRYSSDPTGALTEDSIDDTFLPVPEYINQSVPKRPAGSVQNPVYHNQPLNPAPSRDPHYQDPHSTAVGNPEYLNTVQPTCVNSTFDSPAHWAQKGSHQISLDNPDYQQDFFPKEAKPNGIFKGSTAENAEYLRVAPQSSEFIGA

Structure (SMILES)	Biochem EGFR % Inhibition (P.167)
Cc1c(Br)cc(Br)c2c1C(=Cc1cccc(Oc3ccc(Cl)c(Cl)c3)c1)C(=O)N2 [10738/H03]	16.7%
COc1ccc(C=C2C(=O)Nc3c(Br)cc(Br)c(C)c32)cc1O [10738/H04]	−7.0%
Cc1c(Br)cc(Br)c2c1C(=Cc1cc(O)ccc1[N+](=O)[O-])C(=O)N2 [10738/H05]	5.5%
Cc1c(Br)cc(Br)c2c1C(=Cc1cccc(O)c1O)C(=O)N2 [10738/H06]	−53.8%
